Reference: patent US8778974B2, “Trisubstituted 1,2,4 triazoles” (Janssen Pharmaceutica NV, priority 2008, dated 2014)

What was measured:
[1] = molecular target: T1, hα7-wt nAChR-expressing cells (Homo sapiens, UniProt P36544); test: Ca2+ flux imaging (FDSS) (Protocol B), PAM activity with choline 100 μM; format: cell-based; conditions: according to Ex. D.1b; read-out: % Efficacy
T1 construct: expressed in transfected cells; host or cells: hα7-wt nAChR-expressing cells
Experimental: Ca^2+ Flux Imaging (FDSS) (Protocol B)
• a) Assay buffer • Hanks buffered saline solution (HBSS, Invitrogen, Belgium), supplemented with 10 mM HEPES (Invitrogen, Belgium), CaCl2 to a final concentration of 5 mM, 0.1% Bovine serum albumin (Sigma-Aldrich NV, Belgium). • b) Calcium-sensitive dye—Fluo-4AM • Fluo-4AM (Molecular Probes, USA) was dissolved in DMSO containing 10% Pluronic acid (Molecular Probes, USA) to give a stock solution which was diluted in assay buffer supplemented with 5 mM probenicid (Sigma, Al-drich NV, Belgium) to give a final concentration of 2 μM. • c) 384-well plates • Black 384 well plate black/clear plates, PDL pre-coated (Corning, Incorporated, USA) • d) Calcium flux measurement • A Functional drug screening system (FDSS, Hamamatsu) was used to measure intracellular free-calcium flux signals. Method
Monolayers of hα7-wt nAChR-expressing cells were grown in multi-well plates, in particular black-sided, transparent bottomed 384 well plates coated with poly-D-lysine for 24 hours prior to loading with a fluorescent calcium indicator, in a particular embodiment loading with fluo-4AM for up to 120 minutes.
PAM activity was detected in real time by applying the compounds to be tested to the loaded cells along with a α7 nicotinic receptor agonist during constant monitoring of cellular fluorescence in a FDSS. Compounds giving peak fluorescent responses greater than the response due to agonist alone, were considered to be α7 nAChR PAM's. In a particular embodiment, the α7 nicotinic receptor agonist was choline, a more particular embodiment choline applied at a sub-maximal concentration of 100 μM. In a further setting of the present invention the compounds to be tested were applied prior to the α7 nicotinic receptor agonist, in a particular embodiment up to 10 minutes prior to the agonist.
A control response to choline was calculated on each plate from the difference in peak in fluorescence in wells receiving either choline or assay buffer alone. Compounds of the present invention were tested at a concentration range from 0.01 μM to 30 μM. Compounds were considered to have an interesting activity when they potentiated the choline signal at least with 500% when tested at a concentration of 30 μM (the efficacy of 100 μM choline was defined as 100% in the absence of a PAM). The compounds also have a potentiating effect on the response to choline when measured by whole-cell patch clamp electrophysiology in GH4Cl cells stably over-expressing the human wild-type α7 receptor.

[2] = molecular target: T2, hα7-wt nAChR-expressing GH4Cl cells (Homo sapiens, UniProt P36544); test: Patch-clamp current recording (whole-cell), potentiation of choline 1 mM response, PAM type; format: cell-based; conditions: according to Ex. D.2; "<5" = no top plateau reached at maximal concentration; read-out: Potency (pEC50) (converted)
T2 construct: expressed in transfected cells
T2 sequence (P36544 23-502): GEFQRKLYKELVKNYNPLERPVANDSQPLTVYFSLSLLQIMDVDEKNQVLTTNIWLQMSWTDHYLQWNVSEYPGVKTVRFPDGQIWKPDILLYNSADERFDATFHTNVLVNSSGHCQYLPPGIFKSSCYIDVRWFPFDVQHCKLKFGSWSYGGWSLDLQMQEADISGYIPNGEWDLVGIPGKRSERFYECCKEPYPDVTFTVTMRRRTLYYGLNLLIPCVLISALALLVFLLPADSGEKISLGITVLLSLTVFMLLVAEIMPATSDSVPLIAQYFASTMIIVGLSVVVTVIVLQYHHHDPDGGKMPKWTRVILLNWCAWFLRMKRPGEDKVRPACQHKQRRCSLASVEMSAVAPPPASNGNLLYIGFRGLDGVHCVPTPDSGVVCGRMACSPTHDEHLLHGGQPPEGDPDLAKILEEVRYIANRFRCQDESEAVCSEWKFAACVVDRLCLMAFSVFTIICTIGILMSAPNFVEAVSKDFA
Procedure, shortened: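 PAM type assigned qualitatively from current size and desensitization rate/extent when compound is applied simultaneously with 1 mM choline. Recordings: hα7-wt nAChR GH4Cl cells, whole-cell patch clamp, holding −70 mV, series resistance <15 MΩ with ≥60% compensation, pH 7.3 HEPES solutions, solution switching <100 ms.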

T1 sequence (P36544 23-502): as above

SMILES | Emax [1] [%] | melting point [°C] | EC50 [2] [nM]
Cc1cc(-n2nc(Nc3cc(F)cc(F)c3)nc2CC(=O)NC2CC2)cc(C)n1 [E238] | 382 | 289.2 | 575
Cc1cc(-n2nc(Nc3cc(F)cc(F)c3)nc2CC(=O)NC2CCC2)cc(C)n1 [E239] | 372 | 286.7 | 126
CNC(=O)Cc1nc(Nc2cc(F)c(F)c(F)c2)nn1-c1cc(C)nc(C)c1 [E240] | 628 | 297.4 | 490
Cc1cc(-n2nc(Nc3cc(F)c(F)c(F)c3)nc2CC(=O)NC2CC2)cc(C)n1 [E241] | 653 | 295.7 | 138
Cc1cc(-n2nc(Nc3cc(F)c(F)c(F)c3)nc2CC(=O)NC2CCC2)cc(C)n1 [E242] | 676 | 291.9 | 95.5
CNC(=O)Cc1nc(Nc2cc(OC)cc(C(F)(F)F)c2)nn1-c1cc(C)nc(C)c1 [E243] | 802 | 284.6 | 204
COc1cc(Nc2nc(CC(=O)NC3CCC3)n(-c3cc(C)nc(C)c3)n2)cc(C(F)(F)F)c1 [E244] | 701 | 278.4 | 31.6
CNC(=O)Cc1nc(Nc2cc(F)cc(C(F)(F)F)c2)nn1-c1cc(C)nc(C)c1 [E251] | 658 | 286.2 | 263
Cc1cc(-n2nc(Nc3cc(F)cc(C(F)(F)F)c3)nc2CC(=O)NC2CC2)cc(C)n1 [E253] | 950 | 286.3 | 91.2
Cc1cc(-n2nc(Nc3cc(F)cc(C(F)(F)F)c3)nc2CC(=O)NC2CCC2)cc(C)n1 [E254] | 662 | 291.8 | 75.9

Further lines, with some results ahead:

Emax [1] [%] | melting point [°C] | SMILES | EC50 [2] [nM]
614 | 280.7 | CNC(=O)Cc1nc(Nc2cc(F)cc(Cl)c2)nn1-c1cc(C)nc(C)c1 [E245] | 398
494 | 290.2 | CCNC(=O)Cc1nc(Nc2cc(F)cc(Cl)c2)nn1-c1cc(C)nc(C)c1 [E246] | 275
663 | 289.3 | Cc1cc(-n2nc(Nc3cc(F)cc(Cl)c3)nc2CC(=O)NC2CC2)cc(C)n1 [E247] | 214
421 | 287 | Cc1cc(-n2nc(Nc3cc(F)cc(Cl)c3)nc2CC(=O)NC2CCC2)cc(C)n1 [E248] | 107
546 | 283.2 | CCNC(=O)Cc1nc(Nc2ccc(F)c(Cl)c2)nn1-c1cc(C)nc(C)c1 [E250] | 105
930 | 284.5 | CCNC(=O)Cc1nc(Nc2cc(F)cc(C(F)(F)F)c2)nn1-c1cc(C)nc(C)c1 [E252] | 195
